This note sets out measurements from publication PMC3634512, “Inhibition of Human Transthyretin Aggregation by Non-Steroidal Anti-Inflammatory Compounds: A Structural and Thermodynamic Analysis” (International Journal of Molecular Sciences, 2013).

pKd: −log10 of the molar value.

The target in one assay is T1, Transthyretin (WT-TTR) (Homo sapiens, UniProt P02766).
T1 construct: WT-TTR homotetramer
Briefly: crystal structure (soaked crystals); ANS displacement (apparent Kd). The assay is classed as binding.

The target in assay [1] is T2, Transthyretin (L55P variant) (Homo sapiens, UniProt P02766, L75P).
T2 construct: gene TTR; L55P TTR homotetramer
Description: ANS displacement from the hormone binding site (apparent Kd).

Consider `Cc1ccc(Nc2c(F)cccc2Cl)c(CC(=O)O)c1` [LUM, lumiracoxib], for which the figures for the pKd (on Transthyretin (WT-TTR); in assay [1]) were 5.85 and 5.77, respectively.

What is called pKd is the Kd on a negative log10 scale, so that one unit is a factor of ten.
